This note sets out measurements from US8748426B2, “Inhibitors of diacylglycerol acyl transferase” (Piramal Enterprises Limited, priority 2009, dated 2014).

The structures appear in SMILES notation.

In the assay the target is T1, hDGAT1 (Homo sapiens, UniProt O75907).
T1 sequence (O75907 1-488): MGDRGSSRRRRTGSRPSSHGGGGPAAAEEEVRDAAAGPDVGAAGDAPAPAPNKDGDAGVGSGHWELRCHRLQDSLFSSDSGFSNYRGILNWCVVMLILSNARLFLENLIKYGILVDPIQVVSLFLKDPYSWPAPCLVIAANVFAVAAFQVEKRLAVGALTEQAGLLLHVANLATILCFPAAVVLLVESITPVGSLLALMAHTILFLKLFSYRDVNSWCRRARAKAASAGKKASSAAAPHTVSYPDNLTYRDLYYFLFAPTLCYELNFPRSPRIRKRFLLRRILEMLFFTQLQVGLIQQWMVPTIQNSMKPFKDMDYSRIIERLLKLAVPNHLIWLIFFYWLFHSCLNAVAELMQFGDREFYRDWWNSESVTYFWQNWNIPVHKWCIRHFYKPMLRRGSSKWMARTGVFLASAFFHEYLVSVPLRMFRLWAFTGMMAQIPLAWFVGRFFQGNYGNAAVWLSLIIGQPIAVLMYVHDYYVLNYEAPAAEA
As to the kind of experiment: In-vitro DGAT1 assay (14C oleoyl CoA, hDGAT1 microsomes from Sf9 cells). Particulars: read-out: % Inhibition of hDGAT1.
As for `CC(C)[C@@H](C(=O)O)N1Cc2ccc(-c3ccc(NC(=O)c4ccc5c(c4)OCO5)cc3)cc2C1=O` [Example 128, (S)-2-(6-(4-(Benzo[d][1,3]dioxole-5-carboxamido)phenyl)-1-oxoisoindolin-2-yl)-3-methylbutanoic acid], the inhibition at 1 µM is more than 50%.

Regarding `CC(C)[C@@H](C(=O)O)N1Cc2ccc(-c3ccc(NC(=O)c4c(Cl)cccc4Cl)cc3)cc2C1=O` [Example 130, (S)-2-(6-(4-(2,6-Dichlorobenzamido)phenyl)-1-oxoisoindolin-2-yl)-3-methyl butanoic acid], the inhibition at 1 µM was 10 to 50%.

Turning to `CC(C)[C@@H](C(=O)O)N1Cc2ccc(-c3ccc(NC(=O)c4ccccc4Cl)cc3)cc2C1=O` [Example 132, (S)-2-(6-(4-(2-Chlorobenzamido)phenyl)-1-oxoisoindolin-2-yl)-3-methyl butanoic acid], the inhibition at 1 µM lay in the range of 10 to 50%.

Consider `CC(C)[C@@H](C(=O)O)N1Cc2ccc(-c3ccc(NC(=O)c4ccc(Cl)cc4Cl)cc3)cc2C1=O` [Example 134, (S)-2-(6-(4-(2,4-Dichlorobenzamido)phenyl)-1-oxoisoindolin-2-yl)-3-methyl butanoic acid], for which the inhibition at 1 µM fell in the range of 10 to 50%.

Take `CCCCOc1ccc(C(=O)Nc2ccc(-c3ccc4c(c3)C(=O)N([C@H](C(=O)O)C(C)C)C4)cc2)cc1` [Example 136, (S)-2-(6-(4-(4-Butoxybenzamido)phenyl)-1-oxoisoindolin-2-yl)-3-methyl butanoic acid]: the inhibition at 1 µM was more than 50%.

On to `CC(C)[C@@H](C(=O)O)N1Cc2ccc(-c3ccc(NC(=O)c4c(F)cccc4F)cc3)cc2C1=O` [Example 138, (S)-2-(6-(4-(2,6-Difluorobenzamido)phenyl)-1-oxoisoindolin-2-yl)-3-methyl butanoic acid], for which the inhibition at 1 µM is 10 to 50%.

As for `CC(C)[C@@H](C(=O)O)N1Cc2ccc(-c3ccc(NC(=O)c4ccc(F)c(F)c4)cc3)cc2C1=O` [Example 140, (S)-2-(6-(4-(3,4-Difluorobenzamido)phenyl)-1-oxoisoindolin-2-yl)-3-methyl butanoic acid], the inhibition at 1 µM is more than 50%.

In the case of `COc1ccc(C(=O)Nc2ccc(-c3ccc4c(c3)C(=O)N([C@H](C(=O)O)C(C)C)C4)cc2)cc1OC` [Example 142, (S)-2-(6-(4-(3,4-Dimethoxybenzamido)phenyl)-1-oxoisoindolin-2-yl)-3-methyl butanoic acid], the inhibition at 1 µM lay within 10 to 50%.

In the case of `COc1cc(C(=O)Nc2ccc(-c3ccc4c(c3)C(=O)N([C@H](C(=O)O)C(C)C)C4)cc2)cc(OC)c1OC` [Example 144, (S)-3-Methyl-2-(1-oxo-6-(4-(3,4,5-trimethoxybenzamido)phenyl)isoindolin-2-yl)butanoic acid], the inhibition at 1 µM was more than 50%.

As to `CCOc1cc(OCC)cc(C(=O)Nc2ccc(-c3ccc4c(c3)C(=O)N([C@H](C(=O)O)C(C)C)C4)cc2)c1` [Example 146, (S)-2-(6-(4-(3,5-Diethoxybenzamido)phenyl)-1-oxoisoindolin-2-yl)-3-methyl butanoic acid], the inhibition at 1 µM is more than 50%.

Consider `CC(C)[C@@H](C(=O)O)N1Cc2ccc(-c3ccc(NC(=O)c4ccccc4Oc4ccccc4)cc3)cc2C1=O` [Example 152, (S)-3-Methyl-2-(1-oxo-6-(4-(2-phenoxybenzamido)phenyl)isoindolin-2-yl)butanoic acid], for which the inhibition at 1 µM was more than 50%.

As to `Cc1cc(C)c(C(=O)Nc2ccc(-c3ccc4c(c3)C(=O)N([C@H](C(=O)O)C(C)C)C4)cc2)c(C)c1` [Example 154, (S)-3-Methyl-2-(1-oxo-6-(4-(2,4,6-trimethylbenzamido)phenyl)isoindolin-2-yl)butanoic acid], the inhibition at 1 µM fell in the range of 10 to 50%.

As to `COc1ccc(C(=O)Nc2ccc(-c3ccc4c(c3)C(=O)N([C@H](C(=O)O)C(C)C)C4)cc2)c(OC)c1` [Example 156, (S)-2-(6-(4-(2,4-Dimethoxybenzamido)phenyl)-1-oxoisoindolin-2-yl)-3-methyl butanoic acid], the inhibition at 1 µM was more than 50%.

As usually defined, the inhibition is how much of the control response was suppressed.
